Experiment: xn = mol fraction of the nth substance listed
Details: 101 kPa

COCCO + CCOS(=O)(=O)[O-].CC[n+]1ccn(C)c1
x2 = 0
Details | speed of sound [m/s]
298.15 K | 1344
308.15 K | 1309.2
318.15 K | 1274.5
328.15 K | 1240.1

CCOS(=O)(=O)[O-].CC[n+]1ccn(C)c1 + COCCO
speed of sound [m/s]
Details | 298.15 K | 308.15 K | 318.15 K | 328.15 K
x1 = 0.049 | 1381 | – | 1316.1 | 1282.9
x1 = 0.0819 | 1403 | – | 1340.4 | 1308
x1 = 0.1453 | 1441 | 1412 | 1381.9 | –
x1 = 0.1765 | 1457.4 | 1429 | 1399.5 | 1369.2
x1 = 0.2557 | 1494.5 | – | 1438.7 | 1410
x1 = 0.3386 | – | 1500.6 | 1472.9 | –
x1 = 0.4472 | – | 1537.2 | 1510.3 | 1484.3
x1 = 0.5453 | 1592.2 | 1565.7 | 1539.3 | 1514.2
x1 = 0.6466 | 1617.7 | – | 1565.9 | 1541.3
x1 = 0.7562 | 1641.6 | – | 1591.4 | 1567
x1 = 0.8206 | 1654 | 1629.2 | 1604.6 | 1580.4
x1 = 0.8868 | – | 1641 | – | –
x1 = 0.951 | 1674.9 | 1650.6 | 1626.6 | 1602.8
x1 = 1 | 1680.8 | 1656.4 | – | 1608.9

— a compilation of properties of binary mixtures (doi:10.1007/s10953-016-0465-y)
